From the NIST ThermoML archive (doi:10.1016/j.jct.2012.12.010)
± gives the expanded uncertainty stated by the source.

Experiments:
[1] = mn = molality of the nth substance listed, in mol/kg; conditions: 101 kPa, Liquid, m2 = 0; for speed of sound: Linear variable-path acoustic interferometer; for mass density: Pycnometric method
[2] = 101 kPa, Liquid; for speed of sound: Linear variable-path acoustic interferometer; for mass density: Pycnometric method

Structure (SMILES): O [water] + C[C@@H](O)[C@H](N)C(=O)O
- speed of sound ([1]; 275.15 K): 1412.2 ± 2.8 m/s
- mass density ([1]; 275.15 K): 999.94 ± 0.47 kg/m3
- speed of sound ([1]; 279.15 K): 1430.6 ± 2.8 m/s
- mass density ([1]; 279.15 K): 999.94 ± 0.47 kg/m3
- speed of sound ([1]; 283.15 K): 1447.3 ± 2.8 m/s
- mass density ([1]; 283.15 K): 999.7 ± 0.46 kg/m3

Structure (SMILES): O [water] + N=C(N)NCCC[C@H](N)C(=O)O
- speed of sound ([1]; 275.15 K): 1412.2 ± 2.8 m/s
- mass density ([1]; 275.15 K): 999.94 ± 0.47 kg/m3
- speed of sound ([1]; 279.15 K): 1430.6 ± 2.8 m/s
- mass density ([1]; 279.15 K): 999.94 ± 0.47 kg/m3
- speed of sound ([1]; 283.15 K): 1447.3 ± 2.8 m/s
- mass density ([1]; 283.15 K): 999.7 ± 0.46 kg/m3

Structure (SMILES): O [water]
- speed of sound ([2]; 275.15 K): 1412.2 ± 2.8 m/s
- mass density ([2]; 275.15 K): 999.94 ± 0.47 kg/m3
- speed of sound ([2]; 279.15 K): 1430.6 ± 2.8 m/s
- mass density ([2]; 279.15 K): 999.94 ± 0.47 kg/m3
- speed of sound ([2]; 283.15 K): 1447.3 ± 2.8 m/s
- mass density ([2]; 283.15 K): 999.7 ± 0.46 kg/m3

Structure (SMILES): O [water] + CC(C)[C@H](N)C(=O)O
- speed of sound ([1]; 275.15 K): 1412.2 ± 2.8 m/s
- mass density ([1]; 275.15 K): 999.94 ± 0.47 kg/m3
- speed of sound ([1]; 279.15 K): 1430.6 ± 2.8 m/s
- mass density ([1]; 279.15 K): 999.94 ± 0.47 kg/m3
- speed of sound ([1]; 283.15 K): 1447.3 ± 2.8 m/s
- mass density ([1]; 283.15 K): 999.7 ± 0.46 kg/m3
